Consider 59 molecules from US20080090805A1, “CB-1 MODULATING COMPOUNDS AND THEIR USE” (ACADIA PHARMACEUTICALS INC., priority 2005, published 2008).

The assay has as its target native CB1 receptors (Rattus norvegicus, UniProt P20272). In words: CB1 receptor rat binding assay ([3H]SR141716A, rat brain membranes). As to conditions: rat brain membranes, [3H]SR141716A; for Ki: read-out: Binding rat pKi (converted).

native CB1 receptors, sequence (P20272 whole entry): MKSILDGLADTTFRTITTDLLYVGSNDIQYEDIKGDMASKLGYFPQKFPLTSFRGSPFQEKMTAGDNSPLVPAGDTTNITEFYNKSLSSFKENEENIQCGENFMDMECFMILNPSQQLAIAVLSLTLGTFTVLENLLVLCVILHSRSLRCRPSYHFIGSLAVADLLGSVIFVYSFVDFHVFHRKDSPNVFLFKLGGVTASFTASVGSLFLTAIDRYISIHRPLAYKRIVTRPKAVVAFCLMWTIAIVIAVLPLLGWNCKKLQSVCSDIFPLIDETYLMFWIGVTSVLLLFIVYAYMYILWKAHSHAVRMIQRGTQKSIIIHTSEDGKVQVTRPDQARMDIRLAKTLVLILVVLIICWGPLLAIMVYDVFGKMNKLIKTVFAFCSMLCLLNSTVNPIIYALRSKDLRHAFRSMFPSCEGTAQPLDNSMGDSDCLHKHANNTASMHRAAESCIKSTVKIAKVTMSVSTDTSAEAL

In the case of `COCCNC(=O)c1ccc2c(c1)N=C(c1cccc(F)c1)c1ccccc1S2` [drawing 1468], the “Binding rat Inh %” value is listed as 86% and the Ki was 50.1 nM. In the same order, the values of `O=C(NCc1ccccn1)c1ccc2c(c1)N=C(c1ccc(Br)cc1)c1ccccc1S2` [drawing 1469] are 71% and 50.1 nM. As to `O=C(NCCc1ccccc1)c1ccc2c(c1)N=C(N1CCCCC1)c1ccccc1S2` [drawing 1470], the Ki is 63.1 nM. On the same count and under the same terms, the same measure for `CC(NC(=O)c1ccc2c(c1)N=C(c1ccc(F)cc1)c1ccccc1S2)c1ccccc1` (centres unmarked) [drawing 1471]: 7.94 nM. For the molecule `Cc1cccc(C2=Nc3cc(C(=O)NCC(C)C)ccc3Sc3ccccc32)n1` [drawing 1472], the “Binding rat Inh %” value worked out at 96% and the Ki was 7.94 nM. On the same counts, the results for `O=C(NCCCC(F)(F)F)c1ccc2c(c1)N=C(c1ccccn1)c1ccccc1S2` [drawing 1473] are 92% and 7.94 nM.

For `C[C@@H]1CCC[C@H](C)N1NC(=O)c1ccc2c(c1)N=C(c1ccc(Cl)cc1F)c1ccccc1S2` [drawing 1474], the “Binding rat Inh %” value was 71% and the Ki is 7.94 nM. On the same counts, the results for `O=C(NCCc1ccccn1)c1ccc2c(c1)N=C(c1cccc(Cl)c1)c1ccccc1S2` [drawing 1475] are 76% and 63.1 nM.

As to `CCOC(=O)c1ccc(C2=Nc3cc(C(=O)NCc4ccccn4)ccc3Sc3ccccc32)cc1` [drawing 1476], the “Binding rat Inh %” value is given as −43% and the Ki is 63.1 nM. In the same order, the values of `Cc1ccsc1C1=Nc2cc(C(=O)NC(C)C)ccc2Sc2ccccc21` [drawing 1478] are 60% and 63.1 nM. On to `CCCCNC(=O)c1ccc2c(c1)N=C(c1cccc(Cl)c1)c1ccccc1S2` [drawing 1479], for which the Ki is 7.94 nM.

For the molecule `CCCCNC(=O)c1ccc2c(c1)N=C(c1ccc(Cl)s1)c1ccc(Cl)cc1S2` [drawing 1480], the “Binding rat Inh %” value is reported as 90% and the Ki was 10 nM.

For the molecule `Cc1ccc(CNC(=O)c2ccc3c(c2)N=C(c2cccc(F)c2)c2ccccc2S3)o1` [drawing 1481], the “Binding rat Inh %” value is 88% and the Ki is 10 nM. Take `O=C(NCc1ccccc1Br)c1ccc2c(c1)N=C(c1ccccc1)c1ccccc1S2` [drawing 1483]: the Ki is 63.1 nM. For the molecule `Clc1ccc(C2=Nc3cc(-c4ncc[nH]4)ccc3Sc3ccccc32)cc1` [drawing 1485], the “Binding rat Inh %” value came out at 81% and the Ki was 63.1 nM. In the same order, the values of `NS(=O)(=O)c1ccc(CNC(=O)c2ccc3c(c2)N=C(c2ccc(Cl)cc2)c2ccccc2S3)cc1` [drawing 1486] are 66% and 63.1 nM. Regarding `O=C(NN1CCCCC1)c1ccc2c(c1)N=C(c1cccc(Br)c1)c1ccccc1S2` [drawing 1487], the Ki is 10 nM.

`O=C(NNCC(F)(F)F)c1ccc2c(c1)N=C(c1ccc(Cl)cc1)c1ccccc1S2` [drawing 1488]: the “Binding rat Inh %” value was 70% and the Ki is 10 nM. In the case of `CCN(CCNC(=O)c1ccc2c(c1)N=C(c1ccc(Cl)cc1)c1ccccc1S2)c1ccccc1` [drawing 1489], the Ki is 10 nM. On to `CC(C)CNC(=O)c1ccc2c(c1)N=C(c1cccc(F)c1)c1ccccc1S2` [drawing 1490], for which the “Binding rat Inh %” value was 87% and the Ki was 10 nM. In the case of `O=C(NCc1ccccc1Cl)c1ccc2c(c1)N=C(C1CCCCC1)c1ccccc1S2` [drawing 1491], the Ki is 10 nM. Same read-out and setting: the same measure for `O=C(NCCc1ccc(Cl)cc1)c1ccc2c(c1)N=C(N1CCC(F)(F)CC1)c1ccccc1S2` [drawing 1492]: 63.1 nM; for `CC(NC(=O)c1ccc2c(c1)N=C(c1ccc(Cl)cc1)c1ccccc1S2)c1ccccc1` (centres unmarked) [drawing 1493]: 63.1 nM. As for `O=C(NN1CCCCC1)c1ccc2c(c1)N=C(c1ccc(F)cn1)c1ccccc1S2` [drawing 1494], the “Binding rat Inh %” value was determined as 94% and the Ki was 63.1 nM.

For `C[C@@H]1CCC[C@H](C)N1NC(=O)c1ccc2c(c1)N=C(c1ccccc1F)c1ccccc1S2` [drawing 1495], the “Binding rat Inh %” value is reported as 78% and the Ki was 63.1 nM.

With `CN1c2ccc(C(=O)NCc3ccc(F)cc3)cc2N=C(c2ccc(F)cc2)c2ccccc21` [drawing 1496], the “Binding rat Inh %” value is on record as 83% and the Ki is 63.1 nM. On the same counts, the results for `O=C(NCCc1ccncc1)c1ccc2c(c1)N=C(c1ccc(Cl)c(Cl)c1)c1ccccc1S2` [drawing 1497] are 123% and 10 nM.

For `CCCCNC(=O)c1ccc2c(c1)N=C(c1cccc(F)c1)c1ccccc1S2` [drawing 1498], the “Binding rat Inh %” value was determined as 82% and the Ki was 10 nM. For `O=C(NCCc1cccc(Cl)c1)c1ccc2c(c1)N=C(C1CCCCC1)c1ccccc1S2` [drawing 1499], the Ki is 10 nM.

On to `CCCCNC(=O)c1ccc2c(c1)N=C(c1ccc(Cl)cc1)c1cc(F)ccc1S2` [drawing 1500], for which the “Binding rat Inh %” value is 90% and the Ki is 10 nM.

For the molecule `CCCCNC(=O)c1ccc2c(c1)N=C(c1ccc(Cl)cn1)c1ccccc1S2` [drawing 1501], the “Binding rat Inh %” value is recorded as 98% and the Ki was 10 nM.

Consider `O=C(NN1CCCC1)c1ccc2c(c1)N=C(c1ccc(Cl)cc1)c1ccccc1S2` [drawing 1502], for which the “Binding rat Inh %” value stood at 63% and the Ki was 63.1 nM.

As to `CCOCCNC(=O)c1ccc2c(c1)N=C(c1ccc(Cl)cc1)c1ccccc1S2` [drawing 1504], the “Binding rat Inh %” value is given as 71% and the Ki was 79.4 nM. On the same counts, the results for `O=C(NNCc1ccccc1)c1ccc2c(c1)N=C(c1cccc(Br)c1)c1ccccc1S2` [drawing 1505] are 66% and 79.4 nM. In the same order, the values of `CC(C)CNC(=O)c1ccc2c(c1)N=C(c1ccc(Cl)cn1)c1ccc(Cl)cc1S2` [drawing 1506] are 90% and 79.4 nM. Regarding `Cc1ccsc1C1=Nc2cc(C(=O)NN3CCCCCC3)ccc2Sc2ccccc21` [drawing 1507], the “Binding rat Inh %” value was 76% and the Ki was 10 nM. On the same counts, the results for `COc1ccc(C2=Nc3cc(C(=O)NCC(C)C)ccc3Sc3ccccc32)cc1` [drawing 1508] are 79% and 10 nM.

With `CC(C)CCNC(=O)c1ccc2c(c1)N=C(c1ccccc1F)c1ccccc1S2` [drawing 1509], the “Binding rat Inh %” value is reported as 85% and the Ki is 10 nM. As to `O=C(NCc1cccc(Cl)c1)c1ccc2c(c1)N=C(c1ccccc1F)c1ccccc1S2` [drawing 1510], the Ki was 10 nM. As for `O=C(NCc1ccncc1)c1ccc2c(c1)N=C(c1cccc(Br)c1)c1ccccc1S2` [drawing 1511], the “Binding rat Inh %” value is on record as 76% and the Ki is 79.4 nM. On the same counts, the results for `CCONC(=O)c1ccc2c(c1)N=C(c1ccc(Cl)c(Cl)c1)c1ccccc1S2` [drawing 1512] are 73% and 79.4 nM. Consider `CC(CNC(=O)c1ccc2c(c1)N=C(N1CCCCC1)c1cc(F)ccc1S2)c1ccccc1` (centres unmarked) [drawing 1513], for which the Ki was 79.4 nM. The same measure, in the same setting: then `O=C(NCc1ccc(Cl)cc1Cl)c1ccc2c(c1)N=C(N1CCCCC1)c1ccccc1S2` [drawing 1514], with 79.4 nM. Take `CCCCNC(=O)c1ccc2c(c1)N=C(c1ccc(Cl)s1)c1cc(F)ccc1S2` [drawing 1515]: the “Binding rat Inh %” value worked out at 96% and the Ki is 10 nM. In the same order, the values of `Cc1ccsc1C1=Nc2cc(C(=O)NCC(C)C)ccc2Sc2ccccc21` [drawing 1516] are 98% and 10 nM. On to `CCOC(=O)N1CCC(NC(=O)c2ccc3c(c2)N=C(C2CCCCC2)c2ccccc2S3)CC1` [drawing 1517], for which the Ki is 10 nM. With `O=C(NC1CCCCC1)c1ccc2c(c1)N=C(c1ccc(Cl)cc1)c1ccccc1S2` [drawing 1518], the “Binding rat Inh %” value is recorded as 96% and the Ki was 10 nM. On the same counts, the results for `O=C(NNC(=O)c1ccc2c(c1)N=C(c1ccc(F)cc1)c1ccccc1S2)c1ccccc1` [drawing 1519] are 79% and 79.4 nM. On the same counts, the results for `Cc1ccsc1C1=Nc2cc(C(=O)NCCc3cccnc3)ccc2Sc2ccccc21` [drawing 1521] are 93% and 79.4 nM.

As to `O=C(NN1CCCCCC1)c1ccc2c(c1)N=C(c1ccc(Cl)cc1Cl)c1ccccc1S2` [drawing 1522], the “Binding rat Inh %” value is given as 72% and the Ki was 79.4 nM. Regarding `O=C(NCc1cccc(Cl)c1)c1ccc2c(c1)N=C(N1CCC(F)CC1)c1ccccc1S2` [drawing 1523], the Ki is 10 nM.

Turning to `CC(CNC(=O)c1ccc2c(c1)N=C(c1ccc(Cl)cc1)c1cc(F)ccc1S2)c1ccccc1` (centres unmarked) [drawing 1524], the Ki is 10 nM. Take `CC(C)CNC(=O)c1ccc2c(c1)N=C(c1ccc(Cl)cc1)c1ccc(Cl)cc1S2` [drawing 1525]: the “Binding rat Inh %” value turned out to be 86% and the Ki was 10 nM. On the same counts, the results for `C[C@@H]1CCC[C@H](C)N1NC(=O)c1ccc2c(c1)N=C(c1cccc(Cl)c1)c1ccccc1S2` [drawing 1526] are 73% and 10 nM. On the same counts, the results for `CCCCNC(=O)c1ccc2c(c1)N=C(c1ccccn1)c1ccccc1S2` [drawing 1527] are 108% and 79.4 nM.

For the molecule `CC(C)NC(=O)c1ccc2c(c1)N=C(c1cccc(F)c1)c1ccccc1S2` [drawing 1528], the “Binding rat Inh %” value amounted to 77% and the Ki was 79.4 nM. Consider `CCCC1=Nc2cc(C(=O)NCc3ccc(F)cc3)ccc2Sc2ccccc21` [drawing 1529], for which the Ki is 79.4 nM. With `Cc1ccsc1C1=Nc2cc(C(=O)NN3[C@H](C)CCC[C@@H]3C)ccc2Sc2ccccc21` [drawing 1530], the “Binding rat Inh %” value was found to be 65% and the Ki was 79.4 nM. In the same order, the values of `Cc1ccsc1C1=Nc2cc(C(=O)NC3CCCCC3)ccc2Sc2ccccc21` [drawing 1531] are 72% and 10 nM.
